Source: the supplement of paper PMC10307832

Legend:
Assay in all cases: relative viability (nuclei count vs DMSO), 5 days (fraction); higher = more cells survive
BX 795 + Palbociclib = compound: O=C(NCCCNc1nc(Nc2cccc(NC(=O)N3CCCC3)c2)ncc1I)c1cccs1 [BX 795] + CC(=O)c1c(C)c2cnc(Nc3ccc(N4CCNCC4)cn3)nc2n(C2CCCC2)c1=O [Palbociclib] (partner 0.5 µM)
Summary of the method: (§1)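 The day after seeding in 1536-well plates, lung cancer cell lines were treated by pin tool with a single drug, or with a fixed anchor-drug dose together with five library-drug doses (not always all listed) in √10 steps. After 5 days, a combined fix-and-stain solution (final 0.05% Triton X-100, 1% formaldehyde, 1 ug/ml Hoechst) was added. Nuclei counted on 4× images gave relative viability as treated counts over vehicle counts, reported as the median of duplicate plates.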

BX 795 + Lapatinib = compound: O=C(NCCCNc1nc(Nc2cccc(NC(=O)N3CCCC3)c2)ncc1I)c1cccs1 [BX 795] + CS(=O)(=O)CCNCc1ccc(-c2ccc3ncnc(Nc4ccc(OCc5cccc(F)c5)c(Cl)c4)c3c2)o1 [Lapatinib] (partner 2 µM)
Summary of the method: as §1

BX 795 + Olaparib = compound: O=C(NCCCNc1nc(Nc2cccc(NC(=O)N3CCCC3)c2)ncc1I)c1cccs1 [BX 795] + O=C(c1cc(Cc2n[nH]c(=O)c3ccccc23)ccc1F)N1CCN(C(=O)C2CC2)CC1 [Olaparib] (partner 8 µM)
Summary of the method: as §1

BX 795 + Foretinib = compound: O=C(NCCCNc1nc(Nc2cccc(NC(=O)N3CCCC3)c2)ncc1I)c1cccs1 [BX 795] + COc1cc2c(Oc3ccc(NC(=O)C4(C(=O)Nc5ccc(F)cc5)CC4)cc3F)ccnc2cc1OCCCN1CCOCC1 [Foretinib] (partner 0.25 µM)
Summary of the method: as §1

BX 795 = compound: O=C(NCCCNc1nc(Nc2cccc(NC(=O)N3CCCC3)c2)ncc1I)c1cccs1 [BX 795]
Summary of the method: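 Viability was defined as treated-well nuclei divided by vehicle-well nuclei, with the median taken over replicate plates. Cells from lung cancer lines sat overnight at 37 °C in 1536-well plates, received five √10-spaced library-drug doses by pinning on vehicle-anchored plates, and grew 5 days without medium change before one-step fixation, permeabilisation and Hoechst staining, 4× imaging and MetaXpress nuclear counts. Only plates with control CV under 25% and at least one doubling were kept.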

Cell Line | relative viability (BX 795 + Palbociclib; first compound 0.04 µM) | relative viability (BX 795 + Palbociclib; first compound 0.1265 µM) | relative viability (BX 795 + Palbociclib; first compound 0.4 µM) | relative viability (BX 795 + Palbociclib; first compound 1.265 µM) | relative viability (BX 795 + Lapatinib; first compound 0.04 µM) | relative viability (BX 795 + Lapatinib; first compound 0.1265 µM) | relative viability (BX 795 + Lapatinib; first compound 0.4 µM) | relative viability (BX 795 + Lapatinib; first compound 1.265 µM) | relative viability (BX 795 + Olaparib; first compound 0.04 µM) | relative viability (BX 795 + Olaparib; first compound 0.1265 µM) | relative viability (BX 795 + Olaparib; first compound 0.4 µM) | relative viability (BX 795 + Olaparib; first compound 1.265 µM) | relative viability (BX 795 + Foretinib; first compound 0.04 µM) | relative viability (BX 795 + Foretinib; first compound 0.1265 µM) | relative viability (BX 795 + Foretinib; first compound 0.4 µM) | relative viability (BX 795 + Foretinib; first compound 1.265 µM) | relative viability (BX 795; 0.04 µM) | relative viability (BX 795; 0.1265 µM) | relative viability (BX 795; 0.4 µM) | relative viability (BX 795; 1.265 µM)
EMC-BAC-2 | 0.536 | 0.52 | 0.512 | 0.432 | 0.907 | 0.905 | 0.884 | 0.758 | 0.563 | 0.369 | 0.494 | 0.323 | 1.01 | 1.12 | 0.914 | 0.322 | 0.978 | 0.843 | 0.951 | 0.633
NCI-H2009 | 0.24 | 0.233 | 0.185 | 0.167 | 0.912 | 0.86 | 0.988 | 0.671 | 0.717 | 0.632 | 0.575 | 0.355 | 1.21 | 1.19 | 1.16 | 1.11 | 0.981 | 0.976 | 0.996 | 0.782
NCI-H2347 | 0.496 | 0.417 | 0.523 | 0.496 | 0.945 | 0.903 | 1.16 | 0.914 | 0.679 | 0.658 | 0.646 | 0.515 | 1.03 | 0.915 | 0.8 | 0.773 | 1.14 | 1.01 | 1.28 | 0.935
LU99A | 0.434 | 0.406 | 0.36 | 0.277 | 1.05 | 1.03 | 0.714 | 0.665 | 0.211 | 0.264 | 0.17 | 0.222 | 0.808 | 0.901 | 0.793 | 0.602 | 0.946 | 0.894 | 0.84 | 0.778
HCC-78 | 0.56 | 0.437 | 0.49 | 0.433 | 0.93 | 0.585 | 0.604 | 0.732 | 1.1 | 0.811 | 0.882 | 0.605 | 0.665 | 0.537 | 0.596 | 0.5 | 1.1 | 1 | 1.01 | 0.933
